# According to patent US8324390B2, “Tetrazole-substituted anthranilamides as pesticides” (Bayer CropScience AG, priority 2008, dated 2012):
# Like-named read-outs stand apart in the source and are kept apart here.
# Key:
# [1] = test system: caterpillars of the armyworm (Spodoptera frugiperda); assay: Spodoptera frugiperda test (SPODFR spray treatment); type: in vivo; settings: Spodoptera frugiperda, foliar, read-out: effect in % (caterpillars killed)
# Description: (§1) Solvent: 78.0 parts by weight of acetone
# [2] = log P determination by HPLC (EEC Directive 79/831 Annex V.A8); type: physicochemical
# Procedure: The measurements were carried out using an Agilent 1100 LC system with a 50*4.6 Zorbax Eclipse C18 1.8 μm column (oven temperature 55° C., flow rate 2.0 ml/min).
# The following mobile phases were used:
# Mobile phase A: acetonitrile+1000 μl of formic acid/l
# Mobile phase B: Millipore water+900 μl of formic acid/l
# [3] = test system: larvae of the mustard beetle (Phaedon cochleariae); assay: Phaedon test (PHAECO spray treatment); settings: Phaedon cochleariae, in Brassica rapa, foliar, read-out: effect in % (beetle larvae killed)
# [4] = test system: green peach aphid (Myzus persicae); assay: Myzus test (MYZUPE spray treatment); type: in vivo; settings: Myzus persicae, foliar, read-out: effect in % (aphids killed)
# Description: Solvent: 78 parts by weight of acetone
# as §1
# [5] = application rate 100 g/ha, maize leaf discs
# [6] = reversed-phase HPLC, Zorbax Eclipse C18 column, by HPLC according to EEC Directive 79/831 Annex V.A8, read-out: log P
# [7] = application rate 100 g/ha, Chinese cabbage leaf discs
# [8] = reversed-phase HPLC, Zorbax Eclipse C18 column, determined by HPLC according to EEC Directive 79/831 Annex V.A8, read-out: log P
"chromatographic logP [2, 6]","chromatographic logP [2, 8]",Compound,pest or weed control at 100 g/ha ([1]; in Zea mays),chromatographic logP ([2]; log P),pest or weed control at 100 g/ha [3],pest or weed control at 100 g/ha ([4]; in Brassica rapa),"pest or weed control at 100 g/ha [1, 5]","pest or weed control at 100 g/ha [4, 7]","chromatographic logP ([2]; by HPLC according to EEC Directive 79/831 Annex V.A8, read-out: log P)"
,,CNC(=O)c1cc(C)cc(C)c1NC(=O)c1cc(Cn2nnc(C(F)(F)F)n2)nn1-c1ncccc1Cl [Example 78],≥ 80%,2.81,≥ 80%,≥ 80%,,,
3.28,,CNC(=O)c1cc(C#N)cc(C)c1NC(=O)c1cc(Cn2nnc(C(F)(F)F)n2)nn1-c1c(Cl)cccc1Cl [Example 312],,,≥ 80%,,≥ 80%,≥ 80%,
,,Cc1cc(Cl)cc(C(=O)NCC#N)c1NC(=O)c1cc(Cn2nnc(C(F)(F)F)n2)nn1-c1ncccc1Cl [Example 19],≥ 80%,2.93,≥ 80%,≥ 80%,,,
,2.79,CNC(=O)c1cc(Cl)cc(C)c1NC(=O)c1cc(Cn2nnnc2C(F)(F)F)nn1-c1ncccc1Br [Example 480],,,≥ 80%,,≥ 80%,≥ 80%,
,,CNC(=O)c1cc(C#N)cc(C)c1NC(=O)c1cc(Cn2nnnc2C(F)(F)C(F)(F)F)nn1-c1ncccc1Cl [Example 444],≥ 80%,2.73,≥ 80%,≥ 80%,,,
,2.73,CNC(=O)c1cc(S(C)(=O)=O)cc(C)c1NC(=O)c1cc(Cn2nnc(C(F)(F)F)n2)nn1-c1ccccc1Cl [Example 441],,,≥ 80%,,≥ 80%,≥ 80%,
,,Cc1cc(Br)cc(C(=O)NC(C)(C)C)c1NC(=O)c1cc(Cn2nnnc2C(F)(F)F)nn1-c1ncccc1Cl [Example 182],≥ 80%,3.62,≥ 80%,≥ 80%,,,
,3.27,Cc1cc(Br)cc(C(=O)NC(C)C)c1NC(=O)c1cc(Cn2nnnc2C(F)(F)F)nn1-c1ncccc1Br [Example 501],,,≥ 80%,,≥ 80%,≥ 80%,
,3.29,Cc1cc(Br)cc(C(=O)NC(C)C)c1NC(=O)c1cc(Cn2nnnc2C(F)(F)F)nn1-c1ncccc1C(F)(F)F [Example 459],,,≥ 80%,,≥ 80%,≥ 80%,
,,Cc1cc(I)cc(C(=O)NCC#N)c1NC(=O)c1cc(Cn2nnc(C(F)F)n2)nn1-c1ncccc1Cl [Example 281],≥ 80%,2.68,≥ 80%,≥ 80%,,,
,2.9,Cc1cc(Cl)cc(C(=O)NC2CC2)c1NC(=O)c1cc(Cn2nnnc2C(F)(F)F)nn1-c1ncccc1Br [Example 487],,,≥ 80%,,≥ 80%,≥ 80%,
,,Cc1cc(C#N)cc(C(=O)NCCC(F)(F)F)c1NC(=O)c1cc(Cn2nnc(C(F)(F)F)n2)nn1-c1ncccc1Cl [Example 159],≥ 80%,3.22,≥ 80%,≥ 80%,,,
,,Cc1cc(Br)cc(C(=O)NC(C)C)c1NC(=O)c1cc(Cn2nnnc2C(F)(F)F)nn1-c1ncccc1Cl [Example 171],≥ 80%,3.22,≥ 80%,≥ 80%,,,
3.49,,Cc1cc(Cl)cc(C(=O)NC(C)C)c1NC(=O)c1cc(Cn2nnc(C(F)(F)F)n2)nn1-c1ncccc1Br [Example 334],,,≥ 80%,,≥ 80%,≥ 80%,
,3.29,Cc1cc(Cl)cc(C(=O)NC2CC2)c1NC(=O)c1cc(Cn2nnnc2C(F)(F)C(F)(F)F)nn1-c1ncccc1Br [Example 515],,,≥ 80%,,≥ 80%,≥ 80%,
,,CNC(=O)c1cc(Cl)cc(C)c1NC(=O)c1cc(C(C)n2nnnc2C(F)(F)F)nn1-c1ncccc1Cl (stereo not shown) [Example 510],≥ 80%,2.86,≥ 80%,≥ 80%,,,
,3.16,Cc1cc(I)cc(C(=O)NCC#N)c1NC(=O)c1cc(Cn2nnc(C(F)(F)F)n2)nn1-c1ncccc1Br [Example 412],,,≥ 80%,,≥ 80%,≥ 80%,

"chromatographic logP [2, 6]","chromatographic logP [2, 8]",Compound,pest or weed control at 100 g/ha ([1]; in Zea mays),chromatographic logP ([2]; log P),pest or weed control at 100 g/ha [3],pest or weed control at 100 g/ha ([4]; in Brassica rapa),"pest or weed control at 100 g/ha [1, 5]","pest or weed control at 100 g/ha [4, 7]","chromatographic logP ([2]; by HPLC according to EEC Directive 79/831 Annex V.A8, read-out: log P)"
,,Cc1cc(C#N)cc(C(=O)NC2CC2)c1NC(=O)c1cc(Cn2nnnc2C(F)(F)C(F)(F)F)nn1-c1ncccc1Cl [Example 445],≥ 80%,2.95,≥ 80%,≥ 80%,,,
,,CC(C)NC(=O)c1cc(Cl)cc(Cl)c1NC(=O)c1cc(Cn2nnnc2C(F)F)nn1-c1ncccc1Cl [Example 466],≥ 80%,2.71,≥ 80%,≥ 80%,,,
,,N#CCNC(=O)c1cc(Cl)cc(Cl)c1NC(=O)c1cc(Cn2nnc(C(F)F)n2)nn1-c1ncccc1Cl [Example 290],≥ 80%,2.48,≥ 80%,≥ 80%,,,
,,Cc1cc(C#N)cc(C(=O)NC(C)C)c1NC(=O)c1cc(C(C)n2nnc(C(F)(F)F)n2)nn1-c1ncccc1Cl (stereo not shown) [Example 438],≥ 80%,3.35,≥ 80%,≥ 80%,,,
,,Cc1cc(C#N)cc(C(=O)NCC#N)c1NC(=O)c1cc(Cn2nnc(C(F)(F)F)n2)nn1-c1ncccc1Cl [Example 18],≥ 80%,2.61,≥ 80%,≥ 80%,,,
3.93,,CNC(=O)c1cc(Cl)cc(C)c1NC(=O)c1cc(Cn2nnc(C(F)(F)F)n2)nn1-c1cc(Cl)ccc1Cl [Example 313],,,≥ 80%,,≥ 80%,≥ 80%,
,,CCNC(=O)c1cc(C#N)cc(C)c1NC(=O)c1cc(Cn2nnc(C(F)F)n2)nn1-c1ncccc1Cl [Example 265],≥ 80%,2.36,≥ 80%,≥ 80%,,,
,,CSC[C@H](C)NC(=O)c1cc(Cl)cc(Cl)c1NC(=O)c1cc(Cn2nnc(C(F)(F)C(F)(F)F)n2)nn1-c1ncccc1Cl [Example 154],≥ 80%,4.02,≥ 80%,≥ 80%,,,
,,Cc1cc(Br)cc(C(=O)NC(C)C2CC2)c1NC(=O)c1cc(Cn2nnc(C(F)(F)F)n2)nn1-c1ncccc1Cl (stereo not shown) [Example 31],≥ 80%,3.89,≥ 80%,≥ 80%,,,
,,Cc1cc(C#N)cc(C(=O)NC2CC2)c1NC(=O)c1cc(Cn2nnc(C(F)(F)C(F)(F)C(F)(F)F)n2)nn1-c1ncccc1Cl [Example 113],≥ 80%,,≥ 80%,≥ 80%,,,3.58
3.6,,Cc1cc(C#N)cc(C(=O)NC(C)C)c1NC(=O)c1cc(Cn2nnc(C(F)(F)F)n2)nn1-c1ccccc1Cl [Example 341],,,≥ 80%,,≥ 80%,≥ 80%,
,,Cc1cc(C#N)cc(C(=O)NC2CC2)c1NC(=O)c1cc(Cn2nnnc2C(F)(F)F)nn1-c1ncccc1Cl [Example 166],≥ 80%,2.53,≥ 80%,≥ 80%,,,
,3.78,Cc1cc(C#N)cc(C(=O)NC(C)(C)C)c1NC(=O)c1cc(Cn2nnc(C(F)(F)C(F)(F)F)n2)nn1-c1ncccc1Br [Example 425],,,≥ 80%,,≥ 80%,≥ 80%,
,,CNC(=O)c1cc(C#N)cc(C)c1NC(=O)c1cc(Cn2nnnc2C(F)F)nn1-c1ncccc1Cl [Example 472],≥ 80%,1.97,≥ 80%,≥ 80%,,,
,,CNC(=O)c1cc(C#N)cc(C)c1NC(=O)c1cc(C(C)n2nnc(C(F)(F)F)n2)nn1-c1ncccc1Cl (stereo not shown) [Example 542],≥ 80%,2.86,≥ 80%,≥ 80%,,,
,,CNC(=O)c1cc(Br)cc(C)c1NC(=O)c1cc(Cn2nnnc2C(F)(F)F)nn1-c1ncccc1Cl [Example 170],≥ 80%,2.72,≥ 80%,≥ 80%,,,
2.92,,CNC(=O)c1cc(C#N)cc(C)c1NC(=O)c1cc(Cn2nnc(C(F)(F)F)n2)nn1-c1ccccc1F [Example 318],,,≥ 80%,,≥ 80%,≥ 80%,
